According to the OligoGym collection:
After the bases stand the sugars from the 5' end (letter, count) and the backbone: PS all phosphorothioate, else s phosphorothioate and o phosphodiester by linkage. Methylation of C is not given here. e = 2'-O-(2-methoxyethyl) (MOE); l = locked nucleic acid (LNA); k = constrained ethyl (cEt); d = 2'-deoxy (DNA)

Each sequence was assayed against YAP1. Details: ASO, SNU-449, 2 µM.

First: ATTTAGGATGCATGGT (sugars kekdddddddddeekk, PS)
Second: CTAAGTAAGGTTTCCC (sugars k3 d10 k3, PS)
The target mRNA inhibition of the first is lower: 70% for the first, 83% for the second.

Compared with “ATTAGAGTATGTGGCA (sugars kkdddddddddkekek, PS)”, “ATTCAGATTTAGGATG (sugars kkdddddddddkdkdk, PS)” is lower in target mRNA inhibition: 57% for the first, -2% for the second.

What follows are sequences tested against HTRA1. Details: ASO, U251, 5 µM.

Compared with “ATCTACGCATTGTATCG (sugars l4 d10 l3, PS)”, “TCTATCTACGCATTGTATCG (sugars l2 d16 l2, PS)” is lower in target mRNA inhibition: 85% for the first, 58% for the second.

Going from AGAGTCATCGTGCTCC (sugars l3 d10 l3, PS) to TCTACGCATTGTATCG (sugars l3 d10 l3, PS), the target mRNA inhibition rises from 65% to 97%.

Compared with “CTGACTTGGAGAAAAGCAC (sugars l1 d16 l2, PS)”, “GTAAGAAGTACTTTAATAG (sugars l4 d11 l4, PS)” is higher in target mRNA inhibition: -4% for the first, 80% for the second.
